Here are results for 25 compounds from US11230556B2 (Merck Sharp & Dohme Corp., priority 2016, dated 2022).

The structures appear in SMILES notation.

In the assay the target is T1, human M4 muscarinic acetylcholine receptor (Homo sapiens, UniProt P08173).
T1 construct: expressed in transfected cells; host or cells: CHO-K1
T1 sequence (P08173 1-479): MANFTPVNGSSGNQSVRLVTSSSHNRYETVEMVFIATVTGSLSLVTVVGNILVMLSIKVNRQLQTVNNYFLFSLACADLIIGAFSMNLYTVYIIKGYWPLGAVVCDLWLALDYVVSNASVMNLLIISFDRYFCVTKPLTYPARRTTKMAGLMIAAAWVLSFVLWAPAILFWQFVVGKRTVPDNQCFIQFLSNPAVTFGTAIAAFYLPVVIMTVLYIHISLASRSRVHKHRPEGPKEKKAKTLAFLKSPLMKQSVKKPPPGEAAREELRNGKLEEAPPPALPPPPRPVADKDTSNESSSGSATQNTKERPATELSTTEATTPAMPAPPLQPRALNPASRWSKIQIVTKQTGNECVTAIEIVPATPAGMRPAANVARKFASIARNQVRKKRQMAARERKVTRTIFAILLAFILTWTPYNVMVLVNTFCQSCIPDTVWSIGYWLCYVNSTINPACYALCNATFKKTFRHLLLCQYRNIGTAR
The experiment in a line: human FLIPR-based M4 PAM assay (CHO-K1 cells with human M4 receptor and Gαqi5, calcium dye fluorescence, acetylcholine at 20% of maximum response). The format is cell-based. As to conditions: inflection point (IP) of 4 parameter logistic dose response curve, human M4 receptor + Gαqi5, FLIPR Tetra. How it is done: In a typical experiment the M4 muscarinic acetylcholine receptor modulating activity of the compounds of the present invention was determined in accordance with the following experimental method. CHO-K1 cells stably transfected with human M4 receptor and chimeric G-protein Gαqi5 (Coward P, et al., Analytical Biochemistry, 270:242-248 (1999)) are thawed from liquid N2 storage, resuspended in growth medium, plated in black, clear bottom 384 well plates, and incubated 16-20 hours at 37° C., 5% CO2. On the day of assay, growth medium is removed, the cells are washed 2 times with wash buffer, and cells are incubated in dye loading buffer at 37° C., 5% CO2 for ˜1 hour. Following dye loading the cell plates are placed in a FLIPR Tetra instrument and while monitoring dye fluorescence (excitation […]), 10 uL of test substance at increasing concentrations is added, and fluorescence values are recorded for 4 min. Next, 10 uL of acetylcholine is added (final concentration calculated so as to achieve 20% of the maximum acetycholine response), and the fluorescence reading is continued for 3.5 min. In some cases, a third addition of acetylcholine (final concentration calculated to achieve 70% of the maximal acetylcholine response) is performed. The resulting dose response curves are fit to a 4 parameter logistic equation and the final result is determined as the inflection point (IP) of the curve
CHO-K1 cells stably transfected with human M4 receptor and chimeric G-protein Gαqi5 are thawed from liquid N2 storage, resuspended in growth medium, plated in black, clear bottom 384 well plates, and incubated 16-20 hours at 37° C., 5% CO2.
On the day of assay, growth medium is removed, the cells are washed 2 times with wash buffer, and cells are incubated in dye loading buffer at 37° C., 5% CO2 for ˜1 h. Following dye loading the cell plates are placed in a FLIPR Tetra instrument and while monitoring dye fluorescence ([…]), 10 uL of test substance at increasing concentrations is added, and fluorescence values are recorded for 4 min. Next, 10 uL of acetylcholine is added (final concentration calculated so as to achieve 20% of the maximum acetycholine response), and the fluorescence reading is continued for 3.5 min. In some cases, a third addition of acetylcholine (final concentration calculated to achieve 70% of the maximal acetylcholine response) is performed.
For the compound `COc1ccc(OC2CCN(c3nc4c(cc3C)CN(C(=O)C3CC3)C4)CC2)cn1` [Example 41, cyclopropyl(2-(4-((6-methoxypyridin-3-yl)oxy)piperidin-1-yl)-3-methyl-5,7-dihydro-6H-pyrrolo[3,4-b]pyridin-6-yl)methanone], the 50% effective concentration (EC50) (commonly the midpoint of the concentration-response curve) was found to be 0.153 µM. With `COc1ccc(OC2CCN(c3nc4c(cc3C)CN(C(=O)C3(C)COC3)C4)CC2)cn1` [Example 42, (2-(4-((6-methoxypyridin-3-yl)oxy)piperidin-1-yl)-3-methyl-5,7-dihydro-6H-pyrrolo[3,4-b]pyridin-6-yl)(3-methyloxetan-3-yl)methanone] the figure was 0.2 µM; with `CCOC(=O)N1Cc2cc(C)c(N3CCC(Oc4ccc(OC)nc4)CC3)nc2C1` [Example 43, ethyl 2-(4-((6-methoxypyridin-3-yl)oxy)piperidin-1-yl)-3-methyl-5,7-dihydro-6H-pyrrolo[3,4-b]pyridine-6-carboxylate], 0.157 µM. Consider `COc1ccc(OC2CCN(c3nc4c(cc3C)CN(C(=O)C3(C)CCCC3)C4)CC2)cn1` [Example 44, (2-(4-((6-methoxypyridin-3-yl)oxy)piperidin-1-yl)-3-methyl-5,7-dihydro-6H-pyrrolo[3,4-b]pyridin-6-yl)(1-methylcyclopentyl)methanone], for which the half-maximal effective concentration (EC50) turned out to be 0.489 µM. Consider `COc1ccc(OC2CCN(c3nc4c(cc3C)CN(C(=O)C(C)(C)C)C4)CC2)cn1` [Example 45, 1-(2-(4-((6-methoxypyridin-3-yl)oxy)piperidin-1-yl)-3-methyl-5,7-dihydro-6H-pyrrolo[3,4-b]pyridin-6-yl)-2,2-dimethylpropan-1-one], for which the EC50 was found to be 0.235 µM.

`COc1ccc(OC2CCN(c3nc4c(cc3C)CN(C(=O)C3CCCC3)C4)CC2)cn1` [Example 46, cyclopentyl(2-(4-((6-methoxypyridin-3-yl)oxy)piperidin-1-yl)-3-methyl-5,7-dihydro-6H-pyrrolo[3,4-b]pyridin-6-yl)methanone]: the EC50 was 0.306 µM.

With `Cc1cc2c(nc1N1CCC(Oc3ccccc3)CC1)CN(C(=O)C1CC1)C2` [Example 47, cyclopropyl(3-methyl-2-(4-phenoxypiperidin-1-yl)-5,7-dihydro-6H-pyrrolo[3,4-b]pyridin-6-yl)methanone], the EC50 was determined as 0.113 µM. Take `COc1ccc(OC2CCN(c3nc4c(cc3C)CN(C(=O)C3CCO3)C4)CC2)cn1` (stereo not shown) [Example 48, (2-(4-((6-methoxypyridin-3-yl)oxy)piperidin-1-yl)-3-methyl-5,7-dihydro-6H-pyrrolo[3,4-b]pyridin-6-yl)(oxetan-2-yl)methanone]: the EC50 came to 0.167 µM. With `COc1ccc(OC2CCN(c3nc4c(cc3C)CN(C(=O)C3CC(F)(F)C3)C4)CC2)cn1` [Example 49, (3,3-difluorocyclobutyl)(2-(4-((6-methoxypyridin-3-yl)oxy)piperidin-1-yl)-3-methyl-5,7-dihydro-6H-pyrrolo[3,4-b]pyridin-6-yl)methanone] the figure was 0.126 µM; with `COc1ccc(OC2CCN(c3nc4c(cc3C)CN(C(=O)c3ccc[nH]3)C4)CC2)cn1` [Example 50, (2-(4-((6-methoxypyridin-3-yl)oxy)piperidin-1-yl)-3-methyl-5,7-dihydro-6H-pyrrolo[3,4-b]pyridin-6-yl)(1H-pyrrol-2-yl)methanone], 0.481 µM; with `COc1ccc(OC2CCN(c3nc4c(cc3C)CN(C(=O)[C@H](C)O)C4)CC2)cn1` [Example 51, (S)-2-hydroxy-1-(2-(4-((6-methoxypyridin-3-yl)oxy)piperidin-1-yl)-3-methyl-5,7-dihydro-6H-pyrrolo[3,4-b]pyridin-6-yl)propan-1-one], 0.109 µM. With `COc1ccc(OC2CCN(c3nc4c(cc3C)CN(C(=O)C3CN(C)C3)C4)CC2)cn1` [Example 52, (2-(4-((6-methoxypyridin-3-yl)oxy)piperidin-1-yl)-3-methyl-5,7-dihydro-6H-pyrrolo[3,4-b]pyridin-6-yl)(1-methylazetidin-3-yl)methanone] the figure was 0.453 µM.

Take `COc1ccc(OC2CCN(c3nc4c(cc3C)CN(C(=O)CCN(C)C)C4)CC2)cn1` [Example 53, 3-(dimethylamino)-1-(2-(4-((6-methoxypyridin-3-yl)oxy)piperidin-1-yl)-3-methyl-5,7-dihydro-6H-pyrrolo[3,4-b]pyridin-6-yl)propan-1-one]: the EC50 was determined as 0.502 µM. For `COc1ccc(OC2CCN(c3nc4c(cc3C)CN(C(=O)CN(C)C)C4)CC2)cn1` [Example 54, 2-(dimethylamino)-1-(2-(4-((6-methoxypyridin-3-yl)oxy)piperidin-1-yl)-3-methyl-5,7-dihydro-6H-pyrrolo[3,4-b]pyridin-6-yl)ethan-1-one] the value was 0.238 µM.

Turning to `COc1ccc(OC2CCN(c3nc4c(cc3C)CN(C(=O)C3COC3)C4)CC2)cn1` [Example 55, (2-(4-((6-methoxypyridin-3-yl)oxy)piperidin-1-yl)-3-methyl-5,7-dihydro-6H-pyrrolo[3,4-b]pyridin-6-yl)(oxetan-3-yl)methanone], the EC50 amounted to 0.212 µM.

For the compound `COCCC(=O)N1Cc2cc(C)c(N3CCC(Oc4ccc(OC)nc4)CC3)nc2C1` [Example 56, 3-methoxy-1-(2-(4-((6-methoxypyridin-3-yl)oxy)piperidin-1-yl)-3-methyl-5,7-dihydro-6H-pyrrolo[3,4-b]pyridin-6-yl)propan-1-one], the EC50 was determined as 0.221 µM. With `COc1ccc(OC2CCN(c3nc4c(cc3C)CN(C(=O)C3CC3(F)F)C4)CC2)cn1` (stereo not shown) [Example 57, (2,2-difluorocyclopropyl)(2-(4-((6-methoxypyridin-3-yl)oxy)piperidin-1-yl)-3-methyl-5,7-dihydro-6H-pyrrolo[3,4-b]pyridin-6-yl)methanone], the EC50 turned out to be 0.378 µM. For `COc1ccc(OC2CCN(c3nc4c(cc3C)CN(S(=O)(=O)C3CC3)C4)CC2)cn1` [Example 58, 6-(Cyclopropylsulfonyl)-2-(4-((6-methoxypyridin-3-yl)oxy)piperidin-1-yl)-3-methyl-6,7-dihydro-5H-pyrrolo[3,4-b]pyridine] the value was 0.168 µM. For `COc1ccc(OC2CCN(c3nc4c(cc3C)CN(S(C)(=O)=O)C4)CC2)cn1` [Example 59, 2-(4-((6-methoxypyridin-3-yl)oxy)piperidin-1-yl)-3-methyl-6-(methylsulfonyl)-6,7-dihydro-5H-pyrrolo[3,4-b]pyridine] the value was 0.125 µM; for `Cc1cc2c(nc1N1CCC(Oc3ccccc3)CC1)CN(S(C)(=O)=O)C2` [Example 60, 3-methyl-6-(methylsulfonyl)-2-(4-phenoxypiperidin-1-yl)-6,7-dihydro-5H-pyrrolo[3,4-b]pyridine], 0.02 µM; for `COC(=O)N1Cc2cc(C)c(N3CCC(Oc4ccc(OC)nc4)CC3)nc2C1` [Example 61, methyl 2-(4-((6-methoxypyridin-3-yl)oxy)piperidin-1-yl)-3-methyl-5,7-dihydro-6H-pyrrolo[3,4-b]pyridine-6-carboxylate], 0.156 µM.

With `COC(=O)N1Cc2cc(C)c(N3CCC(Oc4ccccc4)CC3)nc2C1` [Example 62, methyl 3-methyl-2-(4-phenoxypiperidin-1-yl)-5,7-dihydro-6H-pyrrolo[3,4-b]pyridine-6-carboxylate], the EC50 worked out at 0.114 µM. With `COc1ccc(OC2CCN(c3nc4[nH]ncc4cc3C)CC2)cn1` [Example 63, 6-(4-((6-Methoxypyridin-3-yl)oxy)piperidin-1-yl)-5-methyl-1H-pyrazolo[3,4-b]pyridine] the figure was 0.368 µM; with `COc1ccc(OC2CCN(c3nc4cn(C)nc4cc3C)CC2)cn1` [Example 64, 5-(4-((6-Methoxypyridin-3-yl)ox)piperidin-1-yl)-2,6-dimethyl-2H-pyrazolo[4,3-b]pyridine], 0.242 µM. With `COc1ccc(OC2CCN(c3nc4c(C)n[nH]c4cc3C)CC2)cn1` [Example 65, 5-(4-((6-Methoxypyridin-3-yl)oxy)piperidin-1-yl)-3,6-dimethyl-1H-pyrazolo [4,3-b]pyridine] the figure was 1.65 µM.
